Results: article PMC11955804, “Histidine-rich enantiomeric peptide coacervates enhance antigen sequestration and presentation to T cells” (Chemical Science, 2025)

Assays:
[1] = Dynamic light scattering (DLS) droplet size; format: physicochemical; conditions: 1 mM peptide, 1× PBS, pH 7.4; mean of 3 measurements with 14 scans each; identical for each pair of enantiomers
Protocol: Optical microscopy and dynamic light scattering (DLS) […]
Coacervate size was measured using 1 mM
peptide solutions (1×PBS, pH 7.4) on a ZEN 3600 Zetasizer (Malvern Instruments, UK) using
DLS-Zen 0040 specialized cuvettes. The results were reported as the means of three
measurements, with 14 scans for each measurement. […]

[2] = system: CD55 expression in A549 cells; assay: CRISPR/Cas9 RNP delivery, CD55 knockdown by flow cytometry; format: cell-based; conditions: 3 days, enantiomeric coacervates
Protocol: complexed with lipofectamine 2000 (3.2 µL) served as controls. GFP expression was assessed qualitatively after 96 h using a Lionheart FX automated microscope (BioTek Instruments, Inc.).
We employed TrueCut Cas9 protein for the knockout of CD55 gene using CRISPR technology, aided with chiral (GHGXY)4 peptide coacervates. The transfection of the Cas9 RNPs (protein + gRNA) was done according to manufacturer’s protocol (Invitrogen). Briefly, A549 cells were cultured in complete DMEM media (supplemented with 10% FBS and 5% Pen Strep) in T-75 flask till full confluency. Cells were then plated at a concentration of 2×10^4 cells/mL in 24 well […]
plates in DMEM media for 24 h. […]
confluent. For positive control, we mixed the TrueCutTM Cas9 protein/sgRNA in Opti-MEM media (17.8 μL) at a concentration of 12.50 μg (75 pmol; Stock 0.5 mg/mL) and 2.4 μg (75 pmol; Stock 1 nmol) for protein and sgRNA respectively, containing 50 μL LipofectamineTM Cas 9 PlusTM reagent (Total Volume: 100 μL) in a RNAse -free microcentrifuge tube. […]
(DAF) Antibody (anti-human; miltenyibiotec Cat#130-126-382). […] Data were analyzed with FlowJo version 10. […] was quantified as the percentage CD55+ cells, considering untreated cells as the negative control and Lipofectamine treated ones as the positive control. […]

[3] = system: CD8+T cells from OT-I mice on BMDCs; assay: OT-I CD8+ T cell proliferation; format: cell-based, mouse; conditions: BMDCs treated with OVA-loaded coacervates 24 h, CTV-labeled OT-I T cells ~66 h, flow cytometry
Protocol: page 14: parameters across two channels: eGFP and DAPI. […] Cells were incubated at 37°C (protected from light) for 20 min, after which 5× staining volume of EasySep Buffer was added for another 5 min of incubation. The cells were counted again, centrifuged at 300 g for 5 min, resuspended in RPMI-1640 (Gibco 31800- 022) with 10% FBS (R and D Systems […]), 10 mM HEPES (Sigma H0887), 1× MEM NEAA (Gibco 11140-050), 1 mM sodium pyruvate (Gibco 11360-070), 1× pen-strep glutamine (Gibco 10378-016), and 55 μM β-mercaptoethanol (Gibco 21985-023) added fresh, and then plated onto treated BMDCs. The plates were incubated for ~66 h, after which supernatants were collected for Mouse Adaptive Immune CodePlex Secretome analyses (Bruker Cellular Analysis, Inc), and cells were collected for flow cytometry studies. Flow cytometry Total cells from the spleen and lymph nodes of OT-I/OT-II mice were washed with FACS […] staining. […] Data were analyzed with FlowJo version 10. Proliferation was quantified as the percentage of daughter cells out of single, live, CD4+ or CD8+T cells, gated as having a lower CTV fluorescence intensity than the peak of highest fluorescence (undivided). […] Data are expressed as mean ± S.E.M. and statistical analysis was performed using a one-way or two-way ANOVA with Tukey/Sidak's/Dunnett's multiple comparison test. *p ≤ 0.05, **p ≤ 0.01, ***p ≤ 0.001, ****p ≤ 0.0001. […]

| droplet size (DLS) [1] [μm] | Substance | delivery of Cas9 RNP complex / decrease in CD55 expression on the cell surface [2] | CD8+T cell proliferation [3] |
| --- | --- | --- | --- |
| ~1.8 | (GHGLY)4 [GL 20] | not highly effective |  |
| ~1.0 | (GHGVY)4 [GV 20] | successfully delivered the RNP complex | higher percentage of proliferated cells |
